In patent US20080287546A1, “Quorum Sensing Modulators” (priority 2005, published 2008):

Legend:
[1] = system: LasR dependent quorum sensing controlled promoter, prsaL (reporter strain MW1.pUM15); test: Signal Reception Assay (SRA), inhibition of the reporter in the presence of 0.3 μM 3-oxo-C12-HSL; type: cell-based, Pseudomonas aeruginosa; conditions: compound at 100 μM
Source text: (§1) The CSA yields a fluorescent signal reporting both signal synthesis and signal reception. The SRA yields a fluorescent signal due to signal reception. Compounds affecting signal reception can be detected by SRA. The SRA can detect compounds that modulate quorum sensing by inhibiting signal reception or activating signal reception. Inhibitor compounds are identified by performing the SRA with exogenous autoinducer at a concentration of half maximal activation and detecting changes in fluorescence indicative of inhibition of signal reception. Activator compounds are identified by performing the SRA in the absence of exogenous autoinducer.
The plasmid pUM15 carries a YFP reporter under control of a LasR dependent quorum sensing controlled promoter, prsaL. […] This is referred to as the Signal Reception Assay, as only those compounds that modulate signal reception will be detected.
Cells were grown in LB with 50 mM 3-(N-morpholino)propanesulfonic acid (MOPS) pH 7.0, 300 μg/mL carbenicillin. A single colony of MW1.pUM15 from a freshly struck plate was used to inoculate a starter culture and grown shaking at 30° C. not above an absorbance at 600 nm (A600) of 1.5. […]
Nanoplate format: Assay reagents were dispensed with the flying reagent dispenser, FRD (Vertex Pharmaceuticals Incorporated, San Diego, Calif.). […] Fluorescence was read with a SpectroFluor Plus plate reader (Tecan US, Durham, N.C.). […]

[2] = system: LasR dependent quorum sensing controlled promoter, prsaL (reporter strain MW1.pUM15); test: Signal Reception Assay (SRA), activation of the reporter in the absence of an activating signal; type: cell-based, Pseudomonas aeruginosa; conditions: for activation of the reporter (agonist activity): compound at 100 μM, absence of an activating signal, SRA, MW1.pUM15
Source text: as §1
The plasmid pUM15 carries a YFP reporter under control of a LasR dependent quorum sensing controlled promoter, prsaL. When the plasmid is harbored by MW1, a strain lacking the ability to produce acylated homoserine lactones, the reporter is induced only in the presence of exogenous autoinducer. This is referred to as the Signal Reception Assay, as only those compounds that modulate signal reception will be detected.
Cells were grown in LB with 50 mM 3-(N-morpholino)propanesulfonic acid (MOPS) pH 7.0, 300 μg/mL carbenicillin. A single colony of MW1.pUM15 from a freshly struck plate was used to inoculate a starter culture and grown shaking at 30° C. not above an absorbance at 600 nm (A600) of 1.5. Cells were subcultured to A600 of 0.05 and grown shaking at 37° C. for 1-2 h. These mid-logarithmic cells were then added to dried down 3-oxo-C12-HSL to result in a final concentration of 0.3 μM. Induced cells were pipetted into wells containing the test compound. Uninduced cells were included as a control for the assay window. When the assay was used to characterize a potential activator, no homoserine lactone was added.
Nanoplate format: Assay reagents were dispensed with the flying reagent dispenser, FRD (Vertex Pharmaceuticals Incorporated, San Diego, Calif.). An aliquot of 1.5 μL reporter culture was added to wells in 3,456-well plates (3456 plates) and grown for 8-12 h before reading fluorescence with the topography-compensating plate reader, tcPR (Vertex Pharmaceuticals Incorporated, San Diego, Calif.). DR96 format: an aliquot of 50 μL culture was added to 96 well plate and grown for 6-8 h. Fluorescence was read with a SpectroFluor Plus plate reader (Tecan US, Durham, N.C.).
In all formats, plates were sealed in a humidified container and incubated staticly at 37° C. Fluorescence measurements were made with an excitation wavelength of 485 nm and emission wavelength of […]. To evaluate growth in the presence of test compound, the absorbance at 620 nm was also recorded.
The compounds in Table 2 were purchased from Chembridge Corp. (San Diego, Calif.), Specs (Wakefield, R.I.), Interbioscreen Ltd. (Moscow, Russia) and Chemical Diversity Labs, Inc. (San Diego, Calif.), and were characterized with the reporter strain MW1.pUM15 in both microtiter plate format and a shaking tube format. […] The tube format was performed to eliminate plate effects that may mask low levels of inhibition.
In both formats, the compounds were tested for (1) activation of the reporter in the absence of an activating signal, and (2) inhibition of the reporter in the presence of 0.3 μM 3-oxo-C12-HSL. All compounds were tested at 100 μM for their ability to activate or inhibit quorum sensing using the SRA assay. […]

SMILES | inhibition of the reporter (antagonist activity) [1] | activation of the reporter (agonist activity) [2] | activation efficacy (FIG. 2), compared with 3-oxo-C12-HSL ([2]; fluorescence in the SRA as a function of concentration, in the presence of 0.75% DMSO)
O=C(Nc1ccccc1NC(=O)c1cccc(Cl)c1)c1cccc(Cl)c1 [Compound 1] | largest degree of inhibition |  | 
O=C(Oc1c(Br)cc(Br)cc1CNC(=O)c1ccccc1Cl)c1ccc(F)cc1 [Compound 2] |  | activating effects | 
Cc1ccccc1C(=O)Oc1c(Br)cc(Br)cc1CNC(=O)c1ccccc1Cl [Compound 3] |  | activating effects | 
Cc1cc(C)c(OC(=O)c2ccc(Cl)cc2Cl)c(CNC(=O)c2ccccc2Cl)c1 [Compound 4] |  | activating effects | 
O=C(NCc1cc(Br)cc(Br)c1OC(=O)c1ccccc1[N+](=O)[O-])c1ccccc1Cl [Compound 5] |  | activating effects | an activating effect equal to 3-oxo-C12-HSL but at reduced concentrations
